Data from the supplement of paper PMC12463676, “Small-molecule dissolution of stress granules by redox modulation benefits ALS models” (Nature Chemical Biology, 2025).

Tests used:
[1] = compound: O=[As]([O-])(O)O.[K+] [potassium arsenate]; experiment: thermal stability z-score vs DMSO; higher = more thermally stabilized by treatment; details: HeLa; arsenate concentration 1 mM
Procedure: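 Cellular thermal proteome profiling in HeLa cells treated with 1 mM arsenate for 1 h (DMSO pretreatment), heated to ten temperatures (37-66.3 °C). Soluble protein was quantified by TMT mass spectrometry relative to DMSO controls; the thermal stability score was transformed to a z-score; mean of n = 3 experiments.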

[2] = compound: NC(=O)CCCCC1CCSS1 [lipoamide]; experiment: as above; details: HeLa, lipoamide concentration 100 µM
Procedure: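 Cellular thermal proteome profiling in HeLa cells. Cells were treated with 100 µM lipoamide for 1 h, with or without 1 mM arsenate for a further 1 h, then heated to ten temperatures (37-66.3 °C), and soluble protein was quantified by TMT mass spectrometry relative to 0.1% DMSO controls. The thermal stability score (sum of log2 fold changes minus the abundance score) was transformed to a z-score; mean of n = 3 experiments.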

[3] = arsenate co-treatment: 1 mM arsenate 1 h
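Note: each temperature applied for 3 min, abundance score taken as mean log2 fold change at the two lowest temperatures, z-score obtained by mean subtraction and division by SD.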

Sequence of UniProt P26368 (P26368 whole entry): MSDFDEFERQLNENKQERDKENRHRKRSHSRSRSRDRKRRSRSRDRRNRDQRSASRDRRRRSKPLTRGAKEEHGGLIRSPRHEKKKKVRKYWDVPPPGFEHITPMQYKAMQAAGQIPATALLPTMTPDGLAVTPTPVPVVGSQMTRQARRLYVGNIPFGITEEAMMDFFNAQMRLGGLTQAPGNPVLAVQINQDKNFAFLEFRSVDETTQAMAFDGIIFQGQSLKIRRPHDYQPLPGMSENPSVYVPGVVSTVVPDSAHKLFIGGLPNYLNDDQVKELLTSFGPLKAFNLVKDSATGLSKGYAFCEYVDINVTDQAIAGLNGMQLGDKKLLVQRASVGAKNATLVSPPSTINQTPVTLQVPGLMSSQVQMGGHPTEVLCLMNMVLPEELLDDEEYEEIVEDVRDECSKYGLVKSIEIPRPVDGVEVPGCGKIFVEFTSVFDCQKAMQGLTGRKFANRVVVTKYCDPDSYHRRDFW
Sequence of UniProt Q13421 (Q13421 whole entry): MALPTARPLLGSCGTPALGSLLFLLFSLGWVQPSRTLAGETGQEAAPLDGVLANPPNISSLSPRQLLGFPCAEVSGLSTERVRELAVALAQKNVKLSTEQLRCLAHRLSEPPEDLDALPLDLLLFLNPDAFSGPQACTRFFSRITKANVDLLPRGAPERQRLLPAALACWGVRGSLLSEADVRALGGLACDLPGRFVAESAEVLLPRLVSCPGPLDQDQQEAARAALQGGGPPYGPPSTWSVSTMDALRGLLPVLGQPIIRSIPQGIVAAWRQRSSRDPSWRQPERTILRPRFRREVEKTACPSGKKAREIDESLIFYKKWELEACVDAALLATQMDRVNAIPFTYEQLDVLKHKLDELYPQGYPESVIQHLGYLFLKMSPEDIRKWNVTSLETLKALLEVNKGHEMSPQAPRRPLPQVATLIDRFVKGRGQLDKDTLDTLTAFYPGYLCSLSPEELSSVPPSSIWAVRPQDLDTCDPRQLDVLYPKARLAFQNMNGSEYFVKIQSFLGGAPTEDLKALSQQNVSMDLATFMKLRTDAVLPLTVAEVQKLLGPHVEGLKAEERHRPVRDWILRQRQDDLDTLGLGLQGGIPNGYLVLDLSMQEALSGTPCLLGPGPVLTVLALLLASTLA
Sequence of UniProt Q9NUY8 (Q9NUY8 whole entry): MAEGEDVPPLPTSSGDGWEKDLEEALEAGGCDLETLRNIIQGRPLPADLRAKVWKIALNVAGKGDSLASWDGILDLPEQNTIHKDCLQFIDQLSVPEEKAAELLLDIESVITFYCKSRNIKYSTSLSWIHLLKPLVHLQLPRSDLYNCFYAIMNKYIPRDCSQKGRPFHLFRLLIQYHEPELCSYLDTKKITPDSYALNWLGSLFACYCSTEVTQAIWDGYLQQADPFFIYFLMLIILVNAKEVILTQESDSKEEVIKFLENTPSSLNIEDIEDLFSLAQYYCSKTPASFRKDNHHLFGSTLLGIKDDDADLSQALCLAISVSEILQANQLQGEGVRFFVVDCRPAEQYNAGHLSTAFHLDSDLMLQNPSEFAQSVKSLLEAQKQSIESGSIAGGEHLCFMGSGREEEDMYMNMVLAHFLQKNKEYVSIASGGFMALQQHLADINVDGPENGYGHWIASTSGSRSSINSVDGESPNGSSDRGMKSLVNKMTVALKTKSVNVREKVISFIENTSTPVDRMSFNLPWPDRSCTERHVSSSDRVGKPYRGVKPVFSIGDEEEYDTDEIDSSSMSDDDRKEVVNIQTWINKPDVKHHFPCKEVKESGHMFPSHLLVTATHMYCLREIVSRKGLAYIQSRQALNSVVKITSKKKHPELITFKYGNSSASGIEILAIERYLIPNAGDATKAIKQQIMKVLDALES
Sequence of UniProt Q9BZF1 (Q9BZF1 whole entry): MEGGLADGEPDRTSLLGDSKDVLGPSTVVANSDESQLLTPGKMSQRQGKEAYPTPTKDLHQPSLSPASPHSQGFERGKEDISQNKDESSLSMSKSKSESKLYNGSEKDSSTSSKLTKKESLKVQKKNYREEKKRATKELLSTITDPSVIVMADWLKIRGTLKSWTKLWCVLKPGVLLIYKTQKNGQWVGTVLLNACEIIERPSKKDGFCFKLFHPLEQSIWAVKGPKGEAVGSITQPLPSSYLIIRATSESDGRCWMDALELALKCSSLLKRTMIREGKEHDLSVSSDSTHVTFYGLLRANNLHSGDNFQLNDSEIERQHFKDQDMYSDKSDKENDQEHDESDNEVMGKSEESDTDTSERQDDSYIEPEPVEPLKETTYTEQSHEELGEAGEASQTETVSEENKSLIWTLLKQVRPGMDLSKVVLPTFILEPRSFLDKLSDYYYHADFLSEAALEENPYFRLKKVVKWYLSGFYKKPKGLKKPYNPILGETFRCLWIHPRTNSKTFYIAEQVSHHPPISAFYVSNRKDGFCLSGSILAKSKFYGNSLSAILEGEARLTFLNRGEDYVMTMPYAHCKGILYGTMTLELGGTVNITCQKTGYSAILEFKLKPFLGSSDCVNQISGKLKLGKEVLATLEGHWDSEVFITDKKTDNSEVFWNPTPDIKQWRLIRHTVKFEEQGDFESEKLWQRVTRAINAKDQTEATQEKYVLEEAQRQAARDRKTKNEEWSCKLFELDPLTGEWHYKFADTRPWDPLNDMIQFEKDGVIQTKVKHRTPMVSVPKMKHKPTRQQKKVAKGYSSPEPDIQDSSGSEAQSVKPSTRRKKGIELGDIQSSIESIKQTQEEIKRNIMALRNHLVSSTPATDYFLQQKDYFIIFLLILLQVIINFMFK
Sequence of UniProt P05161 (P05161 whole entry): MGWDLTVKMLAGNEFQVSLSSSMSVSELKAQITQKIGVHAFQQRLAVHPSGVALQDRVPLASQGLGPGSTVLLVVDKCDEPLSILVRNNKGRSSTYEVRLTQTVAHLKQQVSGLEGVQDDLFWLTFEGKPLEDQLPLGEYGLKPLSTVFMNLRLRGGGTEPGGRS
Sequence of UniProt P20839 (P20839 whole entry, looked up): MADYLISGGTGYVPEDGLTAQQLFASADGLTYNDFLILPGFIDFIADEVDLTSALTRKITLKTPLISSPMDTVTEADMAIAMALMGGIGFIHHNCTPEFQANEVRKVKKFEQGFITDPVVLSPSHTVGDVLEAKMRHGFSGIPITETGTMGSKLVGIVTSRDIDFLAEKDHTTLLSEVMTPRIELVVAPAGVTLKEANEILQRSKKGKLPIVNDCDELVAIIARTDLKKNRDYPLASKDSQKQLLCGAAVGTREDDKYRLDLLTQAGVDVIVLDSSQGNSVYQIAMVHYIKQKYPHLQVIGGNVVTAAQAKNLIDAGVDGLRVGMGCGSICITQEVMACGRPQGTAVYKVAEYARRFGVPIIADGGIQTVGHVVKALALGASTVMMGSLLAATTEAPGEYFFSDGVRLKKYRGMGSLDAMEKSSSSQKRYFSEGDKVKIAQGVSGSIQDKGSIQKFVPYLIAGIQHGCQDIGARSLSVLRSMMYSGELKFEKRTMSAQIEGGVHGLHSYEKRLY
Sequence of UniProt Q01518 (Q01518 whole entry): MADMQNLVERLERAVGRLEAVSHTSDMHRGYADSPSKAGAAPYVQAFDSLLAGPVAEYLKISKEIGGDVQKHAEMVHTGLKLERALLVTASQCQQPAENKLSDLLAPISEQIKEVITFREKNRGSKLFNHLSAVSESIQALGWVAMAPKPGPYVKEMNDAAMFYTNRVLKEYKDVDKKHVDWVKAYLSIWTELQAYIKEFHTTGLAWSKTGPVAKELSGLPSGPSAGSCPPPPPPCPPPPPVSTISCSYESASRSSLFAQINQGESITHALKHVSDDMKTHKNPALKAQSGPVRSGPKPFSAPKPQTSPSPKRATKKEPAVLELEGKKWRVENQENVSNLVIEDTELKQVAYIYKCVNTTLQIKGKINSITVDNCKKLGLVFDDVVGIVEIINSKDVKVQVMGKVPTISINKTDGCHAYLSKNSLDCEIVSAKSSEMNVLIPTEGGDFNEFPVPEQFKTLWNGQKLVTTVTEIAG
Sequence of UniProt P61024 (P61024 whole entry): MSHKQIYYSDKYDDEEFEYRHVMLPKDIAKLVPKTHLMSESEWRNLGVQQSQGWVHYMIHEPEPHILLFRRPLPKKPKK
Sequence of UniProt P61019 (P61019 whole entry, looked up): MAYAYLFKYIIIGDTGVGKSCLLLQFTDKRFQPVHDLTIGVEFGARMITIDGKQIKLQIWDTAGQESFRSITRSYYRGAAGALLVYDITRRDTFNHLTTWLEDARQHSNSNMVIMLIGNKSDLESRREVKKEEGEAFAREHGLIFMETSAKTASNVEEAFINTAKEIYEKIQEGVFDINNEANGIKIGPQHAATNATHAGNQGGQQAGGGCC
Sequence of UniProt P84095 (P84095 whole entry): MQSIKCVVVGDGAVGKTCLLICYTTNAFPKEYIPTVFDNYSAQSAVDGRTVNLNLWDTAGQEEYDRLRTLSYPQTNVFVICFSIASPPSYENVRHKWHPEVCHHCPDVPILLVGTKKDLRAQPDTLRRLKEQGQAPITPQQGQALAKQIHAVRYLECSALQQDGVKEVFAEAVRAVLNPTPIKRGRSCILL
Sequence of UniProt P51948 (P51948 whole entry): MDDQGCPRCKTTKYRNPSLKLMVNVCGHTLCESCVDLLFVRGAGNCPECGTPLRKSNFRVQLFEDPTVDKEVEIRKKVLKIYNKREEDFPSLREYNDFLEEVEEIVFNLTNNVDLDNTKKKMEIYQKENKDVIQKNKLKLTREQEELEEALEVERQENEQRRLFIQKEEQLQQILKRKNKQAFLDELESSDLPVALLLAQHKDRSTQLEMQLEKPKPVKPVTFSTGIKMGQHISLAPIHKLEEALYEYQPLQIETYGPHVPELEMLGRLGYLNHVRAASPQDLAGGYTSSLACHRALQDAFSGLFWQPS

Target	thermal stability z-score [1]	thermal stability z-score [2, 3]	thermal stability z-score ([2]; arsenate co-treatment: none)
MRPL38 (UniProt Q96DV4)	0.134	-0.319	-0.0312
RAB34	-0.0345	0.732	0.783
CXORF56 (UniProt Q9H5V9)	-3.91	0.162	-0.0486
CKS1B (UniProt P61024)	0.573	0.525	0.603
TMEM160 (UniProt Q9NX00)	0.0213	-0.0998	0.628
POLR2L (UniProt P62875)	0.335	1.27	0.782
SLAIN2 (UniProt Q9P270)	-0.0239	0.251	0.508
OSBPL8 (UniProt Q9BZF1)	-0.00618	-1.47	-1.21
NDUFS1 (UniProt P28331)	0.842	0.106	0.134
CAP1 (UniProt Q01518)	-0.0608	0.524	0.502
ISG15 (UniProt P05161)	0.355	0.471	0.327
PDLIM1 (UniProt O00151)	-0.239	0.156	0.134
U2AF2 (UniProt P26368)	-1.31	-0.241	-0.169
RBFOX2 (UniProt O43251)	0.171	-0.112	0.314
ABCC5 (UniProt O15440)	-0.077	0.335	0.0156
PIK3C2B (UniProt O00750)	0.971	0.468	0.832
TBC1D23 (UniProt Q9NUY8)	0.407	-0.408	-0.264
MNAT1 (UniProt P51948)	0.102	-0.257	-0.423

Target	thermal stability z-score [1]	thermal stability z-score [2, 3]	thermal stability z-score ([2]; arsenate co-treatment: none)
RHOG (UniProt P84095)	0.00682	0.489	0.491
EXOC4 (UniProt Q96A65)	0.0526	-0.433	-0.0966
ARL6 (UniProt Q9H0F7)	0.202	0.197	0.233
MRPL53 (UniProt Q96EL3)	0.0397	0.75	-0.432
MSLN (UniProt Q13421)	-2.44	-0.583	-0.696
MGEA5 (UniProt O60502)	-0.187	-0.365	-0.157
GOLGA4 (UniProt Q13439)	0.774	-0.45	0.00058
GARS (UniProt P41250)	-0.919	-0.224	-0.223
RAB2A (UniProt P61019)	0.296	0.405	0.206
NUMBL (UniProt Q9Y6R0)	-1.68	0.0444	0.451
PCYOX1 (UniProt Q9UHG3)	0.0412	0.606	-0.723
UHRF1BP1L (UniProt A0JNW5)	-0.53	-0.0289	-0.329
IMPDH1 (UniProt P20839)	1.28	-0.546	-0.319
SRSF2 (UniProt Q01130)	-0.0469	0.414	0.274
LRRC41 (UniProt Q15345)	-0.546	-0.134	-0.26
PLD1 (UniProt Q13393)	0.0184	-0.0197	0.0638
MTG2 (UniProt Q9H4K7)	0.127	-0.0209	0.00401
